Data: publication PMC9871744 (Cellular and Molecular Gastroenterology and Hepatology, 2022)
“And” between values parts separate entries of the source, which are not always exact repeats. Identical values can stand only once.

How the values were obtained:
mouse fungiform TBC = assay: Ca2+ signaling in mouse fungiform TBC; assay type: cell-based; conditions: LA at 20 μmol/L
C57BL/6J male mice = assay: Diet-induced obesity; assay type: in vivo
[1] = target: T1, human estrogen receptor alpha (hERα) (Homo sapiens, UniProt P03372); assay: Estrogen receptor transcriptional activation and inhibition assays; assay type: cell-based
T1 sequence (P03372 1-595): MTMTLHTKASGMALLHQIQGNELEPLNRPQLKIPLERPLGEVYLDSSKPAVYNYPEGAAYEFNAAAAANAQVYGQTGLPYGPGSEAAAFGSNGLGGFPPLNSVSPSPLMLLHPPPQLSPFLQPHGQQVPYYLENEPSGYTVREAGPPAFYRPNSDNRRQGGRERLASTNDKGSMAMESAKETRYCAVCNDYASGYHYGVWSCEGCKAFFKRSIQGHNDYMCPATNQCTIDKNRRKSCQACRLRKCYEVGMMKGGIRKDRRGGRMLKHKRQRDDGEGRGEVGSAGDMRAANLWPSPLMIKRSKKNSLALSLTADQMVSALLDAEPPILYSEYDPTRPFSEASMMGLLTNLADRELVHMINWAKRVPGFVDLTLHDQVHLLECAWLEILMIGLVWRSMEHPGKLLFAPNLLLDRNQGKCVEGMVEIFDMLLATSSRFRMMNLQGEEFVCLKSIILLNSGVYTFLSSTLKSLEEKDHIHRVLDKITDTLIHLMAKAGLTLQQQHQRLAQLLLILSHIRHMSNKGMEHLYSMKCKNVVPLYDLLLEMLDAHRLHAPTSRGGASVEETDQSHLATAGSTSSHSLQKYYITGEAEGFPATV

[2] = tested on: human androgen receptor (hAR); assay: Androgen receptor transcriptional activation and inhibition assays; assay type: cell-based
Hela-9903 cells = assay: Cytotoxicity in the estrogen receptor reporter cells; assay type: cell-based
MDA-kb2 cells = assay: Cytotoxicity in the androgen receptor reporter cells; assay type: cell-based
female Wistar rats = assay: Toxicity / median lethal dose test, OECD guidelines 425; assay type: in vivo
[3] = Pharmacokinetics and detection in blood by LC-MS; assay type: in vivo, mice
HepG2 cells [4] = assay: Micronucleus analysis
Cytotoxicity evaluation = conditions: human, Cytotoxicity (%); for cytotoxicity at 0.05 mmol/L: 0.050 mmol/L; for cytotoxicity at 0.1 mmol/L: 0.100 mmol/L
HepG2 cells [5] = assay: Cytotoxicity evaluation
[6] = rats, single oral 2000 mg/kg, means ± SEM (n = 5)
[7] = bicompartmental model (Monolix), mice i.v.
[8] = extended treatment in the absence of S9 mix, 0.0065 mmol/L
[9] = extended treatment in the absence of S9 mix, 0.010 mmol/L
[10] = extended treatment in the absence of S9 mix, 0.020 mmol/L
[11] = extended treatment in the absence of S9 mix, 2.5 mmol/L (Table 14)
[12] = extended treatment in the absence of S9 mix, 5 mmol/L (Table 14)
[13] = extended treatment in the absence of S9 mix, 10 mmol/L (Table 14)
[14] = short treatment in the absence of S9 mix, 0.025 mmol/L
[15] = short treatment in the absence of S9 mix, 0.05 mmol/L
[16] = short treatment in the absence of S9 mix, 0.10 mmol/L
[17] = short treatment in the presence of S9 mix, 0.025 mmol/L
[18] = short treatment in the presence of S9 mix, 0.05 mmol/L
[19] = short treatment in the presence of S9 mix, 0.10 mmol/L
[20] = extended treatment in the absence of S9 mix, 0.030 mmol/L
[21] = extended treatment in the absence of S9 mix, 0.040 mmol/L
[22] = short treatment in absence of S9 mix
[23] = short treatment in the presence of S9 mix
[24] = short treatment in absence of S9 mix, 0.025 mmol/L
[25] = short treatment in absence of S9 mix, 0.050 mmol/L
[26] = short treatment in absence of S9 mix, 0.100 mmol/L
[27] = short treatment in absence of S9 mix, 0.25 mmol/L
[28] = short treatment in the presence of S9 mix, 0.050 mmol/L
[29] = short treatment in the presence of S9 mix, 0.100 mmol/L
[30] = short treatment in the presence of S9 mix, 0.25 mmol/L

What does the source list for `CCCCC/C=C\C/C=C\CCCCCCCCP(=O)(OCC)OCC` [NKS-3, diethyl (9Z,12Z)-octadeca-9,12-dien-1-ylphosphonate]?
Ca2+ signaling compared with a dietary long-chain fatty acid (mouse fungiform TBC): higher; CD36 (reduced) and GPR120 (high) protein expression in TBC, Western blots (C57BL/6J male mice; HFD animals, FTA intake 16 weeks): reversed this trend; locomotor activity (C57BL/6J male mice; HFD mice): increased; LA-induced decreases in [Ca2+]i in TBC from obese mice (C57BL/6J male mice; HFD mice given FTA 16 weeks): reversed; daily energy expenditure (indirect calorimetry) (C57BL/6J male mice; HFD-fed mice): significantly increased; leptin mRNA expression in adipose tissues (C57BL/6J male mice; HFD-fed mice): failed to significantly decrease; fecal microbiota: bacterial family increased (C57BL/6J male mice; HFD-fed mice, 16S rRNA sequencing, week 26): Marinifilaceae; adipose tissue mRNA encoding leptin, CD36, TNF-α, and IL6 (C57BL/6J male mice; HFD-fed mice, epididymal adipose tissue): down-regulated; crown-like structures of adipocytes (C57BL/6J male mice; obese animals, histology): decreased; release of GLP-1, CCK-1, and PYY into blood circulation (C57BL/6J male mice; obese mice, end of week 26): induced the release; estrogenic or antiestrogenic potential (conclusion) [1]: did not exert an estrogenic or antiestrogenic potential; androgenic or antiandrogenic property (conclusion) [2]: did not possess androgenic or antiandrogenic property; cytotoxic concentrations (Hela-9903 cells; Hela-9903 cells): ≥ 10 µmol/L; highest non-cytotoxic concentration (Hela-9903 cells; estrogen receptor assays): 5 µmol/L; cytotoxic concentrations (MDA-kb2 cells; MDA-kb2 cells): ≥ 10 µmol/L; highest non-cytotoxic concentration (MDA-kb2 cells; androgen receptor assays): 5 µmol/L; weight of kidneys (female Wistar rats; [6]): 1.82 ± 0.193 g; weight of liver (female Wistar rats; [6]): 8.12 ± 0.188 g; weight of spleen (female Wistar rats; [6]): 0.96 ± 0.12 g; toxic effect on liver enzymes and blood lipid parameters (female Wistar rats; rats, single oral limit dose 2000 mg/kg body weight, 2 weeks): No toxic effect; evidence of toxicity, preliminary study (female Wistar rats; single animal, oral dosages of 5000 mg/kg body weight): no evidence of toxicity; Intercompartmental clearance, population pharmacokinetic estimation mean [3, 7]: 0.739 L/h; Proportional residual error, population pharmacokinetic model [3, 7]: 1.89%; Volume of central compartment, population pharmacokinetic estimation mean [3, 7]: 0.0634 L; Volume of peripheral compartment, population pharmacokinetic estimation mean [3, 7]: 2.24 L; detection in blood circulation after intravenous injections (LC-MS) ([3]; mice): could be detected; AUClast as share of the total exposure ([3]; mice, intravenous 10 mg/kg): about 80%; AUClast ([3]; mice, intravenous 10 mg/kg body weight, NCA (AUC0–6 h), 10 mg/kg): 59.94 ± 12.09 mg/kg/Lxh; Tmax ([3]; mouse, plasma, iv, 10 mg/kg): 5 min; Vd ([3]; mouse, plasma, iv, 10 mg/kg): 1.23 ± 0.279 L/kg; clearance ([3]; mouse, plasma, iv, 10 mg/kg): 2.82 mL/min/kg and 3.37 mL/min; half-life ([3]; mouse, plasma, iv, 10 mg/kg): 4 h; AUC(0-t) ([3]; mouse, plasma, iv, 10 mg/kg, AUClast, mice, intravenous 10 mg/kg body weight, NCA (AUC0–6 h)): ~60000 ng·h/mL; Cmax ([3]; mouse, plasma, iv, 10 mg/kg, mice, dose of 10 mg/kg body weight): ~48000 ng/mL; Cmax ([3]; mouse, plasma, iv, 10 mg/kg, mice, intravenous 10 mg/kg body weight, NCA, means ± SEM, five mice): 46700 ± 15300 ng/mL; MNBN cells frequency (%) (HepG2 cells [4]; [8]): 0.8% and 0.6%; Mean frequency (%) of MNBN cells (HepG2 cells [4]; [8]): 0.70%; MNBN cells frequency (%) (HepG2 cells [4]; [9]): 0.9% and 0.8%; Mean frequency (%) of MNBN cells (HepG2 cells [4]; [9]): 0.85%; MNBN cells frequency (%) (HepG2 cells [4]; [10]): 0.9% and 0.6%; Mean frequency (%) of MNBN cells (HepG2 cells [4]; [10]): 0.75%; MNBN cells frequency (%) (HepG2 cells [4]; [11]): 0.9% and 0.7%; Mean frequency (%) of MNBN cells (HepG2 cells [4]; [11]): 0.80%; MNBN cells frequency (%) (HepG2 cells [4]; [12]): 0.9% and 0.8%; Mean frequency (%) of MNBN cells (HepG2 cells [4]; [12]): 0.85%; MNBN cells frequency (%) (HepG2 cells [4]; [13]): 1.0% and 0.9%; Mean frequency (%) of MNBN cells (HepG2 cells [4]; [13]): 0.95%; MNBN cells frequency (%) (HepG2 cells [4]; [14]): 0.6% and 0.5%; Mean frequency (%) of MNBN cells (HepG2 cells [4]; [14]): 0.55%; MNBN cells frequency (%) (HepG2 cells [4]; [15]): 0.7%; Mean frequency (%) of MNBN cells (HepG2 cells [4]; [15]): 0.70%; MNBN cells frequency (%) (HepG2 cells [4]; [16]): 0.7% and 0.6%; Mean frequency (%) of MNBN cells (HepG2 cells [4]; [16]): 0.65%; MNBN cells frequency (%) (HepG2 cells [4]; [17]): 0.7%; Mean frequency (%) of MNBN cells (HepG2 cells [4]; [17]): 0.70%; MNBN cells frequency (%) (HepG2 cells [4]; [18]): 0.6% and 0.8%; Mean frequency (%) of MNBN cells (HepG2 cells [4]; [18]): 0.70%; MNBN cells frequency (%) (HepG2 cells [4]; [19]): 0.6% and 0.4%; Mean frequency (%) of MNBN cells (HepG2 cells [4]; [19]): 0.50%; cytotoxicity at 0.0065 mmol/L (Cytotoxicity evaluation; [8]): 24.9%; cytotoxicity at 0.01 mmol/L (Cytotoxicity evaluation; [9]): 35.3%; cytotoxicity at 0.02 mmol/L (Cytotoxicity evaluation; [10]): 49.5%; cytotoxicity at 0.03 mmol/L (Cytotoxicity evaluation; [20]): 72.8%; cytotoxicity at 0.04 mmol/L (Cytotoxicity evaluation; [21]): 73.7%; cytotoxicity at 0.025 mmol/L (Cytotoxicity evaluation; [22]): -9.99%; cytotoxicity at 0.05 mmol/L (Cytotoxicity evaluation; [22]): 14.7%; cytotoxicity at 0.1 mmol/L (Cytotoxicity evaluation; [22]): 56.2%; cytotoxicity at 0.25 mmol/L (Cytotoxicity evaluation; [22]): 65.5%; cytotoxicity at 0.025 mmol/L (Cytotoxicity evaluation; [23]): -3.6%; cytotoxicity at 0.05 mmol/L (Cytotoxicity evaluation; [23]): -5.03%; cytotoxicity at 0.1 mmol/L (Cytotoxicity evaluation; [23]): 19.4%; cytotoxicity at 0.25 mmol/L (Cytotoxicity evaluation; [23]): 73%; concentrations with evidence of toxicity (HepG2 cells [5]; extended treatment in the absence of S9 mix): ≥ 30 µM; CBPI (HepG2 cells [5]; [8]): 1.64 and 1.74; Mean CBPI (HepG2 cells [5]; [8]): 1.69; CBPI (HepG2 cells [5]; [9]): 1.57 and 1.62; Mean CBPI (HepG2 cells [5]; [9]): 1.59; CBPI (HepG2 cells [5]; [10]): 1.47 and 1.46; Mean CBPI (HepG2 cells [5]; [10]): 1.46; CBPI (HepG2 cells [5]; [20]): 1.25; Mean CBPI (HepG2 cells [5]; [20]): 1.25; CBPI (HepG2 cells [5]; [21]): 1.24; Mean CBPI (HepG2 cells [5]; [21]): 1.24; Cytotoxicity (%) (HepG2 cells [5]; extended treatment in the absence of S9 mix, 0.062 mmol/L): Cell death; Cytotoxicity (%) (HepG2 cells [5]; extended treatment in the absence of S9 mix, 0.125 mmol/L): Cell death; CBPI (HepG2 cells [5]; [24]): 1.83 and 1.84; Mean CBPI (HepG2 cells [5]; [24]): 1.84; CBPI (HepG2 cells [5]; [25]): 1.64 and 1.66; Mean CBPI (HepG2 cells [5]; [25]): 1.65; CBPI (HepG2 cells [5]; [26]): 1.28 and 1.38; Mean CBPI (HepG2 cells [5]; [26]): 1.33; CBPI (HepG2 cells [5]; [27]): 1.28; Mean CBPI (HepG2 cells [5]; [27]): 1.26; Cytotoxicity (%) (HepG2 cells [5]; short treatment in absence of S9 mix, 0.40 mmol/L): Cell death; Cytotoxicity (%) (HepG2 cells [5]; short treatment in absence of S9 mix, 0.50 mmol/L): Cell death; Cytotoxicity (%) (HepG2 cells [5]; short treatment in absence of S9 mix, 1.00 mmol/L): Cell death; Cytotoxicity (%) (HepG2 cells [5]; short treatment in absence of S9 mix, 5.00 mmol/L): Cell death; Cytotoxicity (%) (HepG2 cells [5]; short treatment in absence of S9 mix, 10.00 mmol/L): Cell death; concentrations with evidence of toxicity (HepG2 cells [5]; short treatment in the absence of S9 mix): ≥ 250 µM; concentrations with evidence of toxicity (HepG2 cells [5]; [23]): ≥ 250 µM; CBPI (HepG2 cells [5]; [17]): 1.83 and 1.84; Mean CBPI (HepG2 cells [5]; [17]): 1.83; CBPI (HepG2 cells [5]; [28]): 1.86 and 1.82; Mean CBPI (HepG2 cells [5]; [28]): 1.84; CBPI (HepG2 cells [5]; [29]): 1.63 and 1.66; Mean CBPI (HepG2 cells [5]; [29]): 1.65; CBPI (HepG2 cells [5]; [30]): 1.20 and 1.23; Mean CBPI (HepG2 cells [5]; [30]): 1.22; Cytotoxicity (%) (HepG2 cells [5]; short treatment in the presence of S9 mix, 0.40 mmol/L): Cell death; Cytotoxicity (%) (HepG2 cells [5]; short treatment in the presence of S9 mix, 0.50 mmol/L): Cell death; Cytotoxicity (%) (HepG2 cells [5]; short treatment in the presence of S9 mix, 1.00 mmol/L): Cell death; Cytotoxicity (%) (HepG2 cells [5]; short treatment in the presence of S9 mix, 5.00 mmol/L): Cell death; Cytotoxicity (%) (HepG2 cells [5]; short treatment in the presence of S9 mix, 10.00 mmol/L): Cell death
